Tests used:
CYP1A1 = assay: Induction of expression of the CYP1A1 gene in OUMS-29 cells (RT-PCR); conditions: 1 day after addition, 3-MC 0 to 10000 nM, BP 0 to 50000 nM, PB 0 to 25 mM, corrected to beta-actin mRNA
Excerpt: (§1) The expression of cytochrome P450 in the OUMS-29 culture can be analyzed by assessing the level of mRNA content by the commonly known RT-PCR method using DNA primers specific to different types of cytochrome P450. These primers can be prepared from the sequences of the respective types of cytochrome P450 available from the Gene Bank database. The accession numbers at the Gene Bank are K03191 for CYP1A1, M55053 for CYP1A2, J02625 for CYP2E1, J04449 for CYP3A4, J04813 for CYP3A5, and D00408 for CYP3A7. The individual primers used were
(§2) The OUMS-29 culture was cultured for 5 to 7 days; the cells becoming confluent were harvested, from which RNA was extracted using the RNAeasy kit (Quiagen). This RNA, along with the previously determined primers specific to the respective types of cytochrome P450, was subjected to reverse transcription from mRNA and PCR using an one-step PCR kit (Takara Shuzo), after which it was separated using agarose gel and visualized with ultraviolet rays in the presence of ethidium bromide.
(§3) The cultured cells were separated, from which RNA was extracted using the method described above and subjected to RT-PCR.
(§4) Regarding annealing conditions for the RT-PCR method, the annealing temperatures were 55° C. for CYP1A1, 65° C. for CYP1A2, and 55° C. for CYP3A, the cycle numbers being 28 to 36 cycles.
The cycle number for beta-actin, serving as a control, was 15 cycles.
In this operation, an actin competitive RT-PCR kit (Takara Shuzo) was used to correct the total mRNA content in each sample with reference to the mRNA content of beta-actin, which is expressed to the same extent in all tissues.

CYP1A2 = assay: Induction of expression of the CYP1A2 gene in OUMS-29 cells (RT-PCR); conditions: 1 day after addition, 3-MC 0 to 10000 nM, BP 0 to 50000 nM, corrected to beta-actin mRNA
Excerpt: as §1, §2, §3, §4
The cycle number for beta-actin, serving as a control, was 15 cycles. […]

[1] = biological target: T1, NADPH cytochrome P450 reductase (Homo sapiens, UniProt P16435); assay: Cytochrome P450 reductase activity of enzyme source of OUMS-29 origin (cytochrome C reduction); type: in vitro ADME; conditions: disrupted OUMS-29 cells, with NADPH; 1 unit = reducing 1 nanomol of cytochrome C per milligram of protein per minute
T1 construct: disrupted using an ultrasound generator; this suspension was used as the enzyme source; endogenous in cells; host or cells: OUMS-29 (SV40 T antigen-immortalized human fetal hepatocytes), sonicated cell suspension
T1 sequence (P16435 1-677): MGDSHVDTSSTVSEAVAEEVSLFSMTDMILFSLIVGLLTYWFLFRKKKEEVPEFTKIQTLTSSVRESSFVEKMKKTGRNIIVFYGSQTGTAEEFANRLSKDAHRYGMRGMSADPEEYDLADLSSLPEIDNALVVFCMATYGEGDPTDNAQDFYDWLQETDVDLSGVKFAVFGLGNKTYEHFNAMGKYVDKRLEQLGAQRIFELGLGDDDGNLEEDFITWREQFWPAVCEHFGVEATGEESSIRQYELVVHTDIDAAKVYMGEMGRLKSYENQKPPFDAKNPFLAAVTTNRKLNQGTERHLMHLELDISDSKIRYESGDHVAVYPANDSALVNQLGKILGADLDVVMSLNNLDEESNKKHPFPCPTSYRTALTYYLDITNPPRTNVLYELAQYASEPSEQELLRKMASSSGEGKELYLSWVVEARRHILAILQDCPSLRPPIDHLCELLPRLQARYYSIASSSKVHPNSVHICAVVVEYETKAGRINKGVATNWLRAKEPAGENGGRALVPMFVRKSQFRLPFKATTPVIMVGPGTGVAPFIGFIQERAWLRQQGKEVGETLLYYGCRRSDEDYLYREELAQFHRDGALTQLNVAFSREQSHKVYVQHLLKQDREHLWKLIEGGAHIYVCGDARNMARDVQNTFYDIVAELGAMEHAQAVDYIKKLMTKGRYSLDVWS
Description: Specifically, cytochrome P450 reductase activity was determined on the basis of cytochrome C reduction in the presence of NADPH (reduced nicotinamide adenine dinucleotide phosphate) and an enzyme source of OUMS-29 origin with cytochrome C as the substrate.

| Compound | expression of CYP1A1 (mRNA, RT-PCR) (CYP1A1) | expression of CYP1A2 (mRNA, RT-PCR) (CYP1A2) | cytochrome C reduction (cytochrome P450 reductase activity) [1] |
| --- | --- | --- | --- |
| Cc1ccc2cc3c(ccc4ccccc43)c3c2c1CC3 [3-methylcholanthrene] | enhanced | enhanced | – |
| c1ccc2c(c1)c1cccc3ccc4cccc2c4c31 [benzpyrene] | enhanced | enhanced | – |
| CCC1(c2ccccc2)C(=O)NC(=O)NC1=O [phenobarbitone] | enhanced | – | – |
| cytochrome C | – | – | 8 units |

From US7186553B1, “Human derived immortalized liver cell line” (Takeda Pharmaceutical Company Limited, priority 1998, dated 2007)
